From BindingDB's records for doi:10.1016/j.chembiol.2005.02.004 (Purdue University, 2005) come the findings set out here.

Assay [1] deals with T1, Capsid scaffolding protein (Human herpesvirus 1 (strain 17), UniProt P10210).
T1 sequence (P10210 whole entry): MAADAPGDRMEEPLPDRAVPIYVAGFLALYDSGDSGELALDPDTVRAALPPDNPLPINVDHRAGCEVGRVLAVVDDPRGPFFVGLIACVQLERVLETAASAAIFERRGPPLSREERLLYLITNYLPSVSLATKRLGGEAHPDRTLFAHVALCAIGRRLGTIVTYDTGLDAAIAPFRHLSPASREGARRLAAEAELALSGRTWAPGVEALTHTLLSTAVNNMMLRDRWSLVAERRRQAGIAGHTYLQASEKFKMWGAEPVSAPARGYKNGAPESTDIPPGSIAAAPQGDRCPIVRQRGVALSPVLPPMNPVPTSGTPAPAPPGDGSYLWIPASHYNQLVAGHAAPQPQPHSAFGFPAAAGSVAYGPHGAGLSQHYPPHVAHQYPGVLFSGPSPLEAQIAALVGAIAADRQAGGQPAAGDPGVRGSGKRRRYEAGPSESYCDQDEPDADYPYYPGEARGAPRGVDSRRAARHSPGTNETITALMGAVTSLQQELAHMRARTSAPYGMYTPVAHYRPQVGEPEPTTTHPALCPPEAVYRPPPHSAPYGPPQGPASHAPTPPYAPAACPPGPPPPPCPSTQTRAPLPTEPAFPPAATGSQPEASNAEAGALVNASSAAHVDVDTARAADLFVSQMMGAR
Description: Competitive Assay. The conditions noted are these: pH 5.52. An excerpt: The competitive assay requires two inhibitors to act by a purely competitive mechanism, whereas the binding site of on the inhibitors has been established.

The target in assay [2] is T1, Capsid scaffolding protein. Description: Zhang-Poorman Assay. The conditions noted are these: pH 5.52.

Numbered stars: 1 amine (or outer) side, 2 acyl side, 3 side chain; on linkers, the order of the positions; unused ones are H or OH. Bridge positions count the residues as written; N and C are the ends. Square brackets hold non-standard residues; d marks the D form. Peptide text beside a SMILES is read from it. I, II: the chains in the order shown. * marks the point of attachment. C16 diacid = O=C(O)CCCCCCCCCCCCCCC(=O)*; X1 = NC(O)C[C@H](N[*:1])C(=O)[*:2]

For the compound `CC(C)C[C@@H](NC(=O)[C@H](NC(=O)CCCCCCCCCCCCCCC(=O)N[C@H](CC(N)=O)C(=O)N[C@@H](Cc1ccccc1)C(=O)O)C(C)O)C(=O)NCCc1cccc(O)c1` (stereo partly specified) [Pepstatin analog, 4], in assay [1], the half-maximal inhibitory concentration (IC50) worked out at 4.4 µM and the affinity, expressed as Ki, was 1.13 µM.
`COc1ccc(CCNC(=O)[C@@H](CC(C)C)NC(=O)[C@H](NC(=O)CCCCCCCCCCCCCCC(=O)N[C@H](CC(N)=O)C(=O)N[C@@H](Cc2ccccc2)C(=O)O)C(C)O)cc1OC` (stereo partly specified) [Pepstatin analog, 9] registered an IC50 in assay [2] of 4.3 µM.
In assay [2], `CC(C)C[C@@H](NC(=O)[C@H](NC(=O)CCCCCCCCCCCCCCC(=O)N[C@H](CC(N)=O)C(=O)N[C@@H](Cc1ccccc1)C(=O)O)C(C)O)C(=O)NCCc1ccc(Oc2ccc(O)cc2)cc1` (stereo partly specified) [Pepstatin analog, 12] had a concentration for half-maximal inhibition (IC50) of 0.36 µM and an inhibition constant Ki of 0.096 µM.
In assay [1], `CC[C@H](C)[C@H](NC(=O)[C@H](CCC(N)=O)NC(=O)[C@@H]1CCCN1C(=O)CCCCCCCCCCCCCCC(=O)N[C@@H](CO)C(=O)N[C@H](C(=O)N[C@H](C(=O)N[C@@H](CC(N)O)C(=O)N[C@@H](Cc1ccccc1)C(=O)O)C(C)C)[C@@H](C)O)C(=O)N[C@H](C(=O)N[C@@H](CC(C)C)C(=O)N[C@@H](Cc1c[nH]c2ccccc12)C(=O)O)[C@@H](C)O` (stereo partly specified) [Pepstatin analog, 1] (I: PQITLW-OH / II: STV[X1]F-OH; linker I:N-II:N via C16 diacid) gave an IC50 of 0.35 µM and a Ki of 0.22 µM.
In assay [2], `CC(C)C[C@@H](NC(=O)[C@H](NC(=O)CCCCCCCCCCCCCCC(=O)N[C@H](CC(N)=O)C(=O)N[C@@H](Cc1ccccc1)C(=O)O)C(C)O)C(=O)NCCc1ccc(Oc2ccccc2)cc1` (stereo partly specified) [Pepstatin analog, 11] gave a 50% inhibitory concentration (IC50) of 0.73 µM and an inhibition constant Ki of 0.175 µM.
In assay [1], `COc1cccc(CCNC(=O)[C@@H](CC(C)C)NC(=O)[C@H](NC(=O)CCCCCCCCCCCCCCC(=O)N[C@H](CC(N)=O)C(=O)N[C@@H](Cc2ccccc2)C(=O)O)C(C)O)c1` (stereo partly specified) [Pepstatin analog, 5] registered a half-inhibitory concentration (IC50) of 4.9 µM and a Ki of 1.29 µM.
Turning to `CC(C)C[C@H](NC(=O)[C@@H](NC(=O)CCCCCCCCCCCCCCC(=O)N[C@H](CC(N)=O)C(=O)N[C@@H](Cc1ccccc1)C(=O)O)C(C)O)C(=O)NCCc1ccccc1` (stereo partly specified) [Pepstatin analog, 3], in assay [1], the half-maximal inhibitory concentration (IC50) stood at 5.8 µM.
Consider `CC(C)C[C@H](NC(=O)[C@@H](NC(=O)CCCCCCCCCCCCCCC(=O)N[C@H](CC(N)=O)C(=O)N[C@H](Cc1ccccc1)C(=O)O)C(C)O)C(=O)N[C@@H](Cc1ccccc1)C(N)=O` (stereo partly specified) [Pepstatin analog, 2], for which, in assay [1], the 50% inhibitory concentration (IC50) came to 5.9 µM and the affinity corresponds to a Ki of 3 µM.
In assay [2], `COc1ccc(CCNC(=O)[C@@H](CC(C)C)NC(=O)[C@H](NC(=O)CCCCCCCCCCCCCCC(=O)N[C@H](CC(N)=O)C(=O)N[C@@H](Cc2ccccc2)C(=O)O)C(C)O)cc1` (stereo partly specified) [Pepstatin analog, 7] displayed an IC50 of 2.7 µM and an inhibition constant Ki of 0.72 µM.
The like results for `CC(C)C[C@@H](NC(=O)[C@H](NC(=O)CCCCCCCCCCCCCCC(=O)N[C@H](CC(N)=O)C(=O)N[C@@H](Cc1ccccc1)C(=O)O)C(C)O)C(=O)NCCc1ccc(N)cc1` (stereo partly specified) [Pepstatin analog, 10] were, in that order, 2.5 µM and 0.65 µM.
In assay [2], `CC(C)C[C@@H](NC(=O)[C@H](NC(=O)CCCCCCCCCCCCCCC(=O)N[C@H](CC(N)=O)C(=O)N[C@@H](Cc1ccccc1)C(=O)O)C(C)O)C(=O)NCCc1ccc(O)cc1` (stereo partly specified) [Pepstatin analog, 6] gave a 50% inhibitory concentration (IC50) of 5.8 µM.
As to `CC(C)C[C@@H](NC(=O)[C@H](NC(=O)CCCCCCCCCCCCCCC(=O)N[C@H](CC(N)=O)C(=O)N[C@@H](Cc1ccccc1)C(=O)O)C(C)O)C(=O)NCCc1ccc(O)c(O)c1` (stereo partly specified) [Pepstatin analog, 8], in assay [2], it took 2.9 µM to reach half-maximal inhibition (IC50) and the Ki was found to be 0.6 µM.

By IC50 is commonly meant the concentration at which inhibition is half-maximal. Low readings indicate greater potency in that assay, high ones weaker potency in that assay. By Ki is commonly meant a measure of affinity in units of concentration, obtained from inhibition or displacement.
